Data: patent US7211600B2, “Methods of modulating c-kit tyrosine protein kinase function with indolinone compounds” (Sugen Inc., priority 1999, dated 2007)
pIC50: −log10 of the molar value. Where two headings read alike, the source gives them in different places.

Experiments:
[1] = test system: MO7E cells; assay: Apoptosis assay: activated caspase-3 by FACS; format: cell-based, human
Description: (§1) Samples were assayed at 24 and 48 hours. To measure activated caspase-3, samples were washed with PBS and permeabilized with ice-cold 70% ethanol. The cells were then stained with PE-conjugated polyclonal rabbit anti-active caspase-3 and analyzed by FACS. To measure cleaved PARP, samples were lysed and analyzed by western blotting with an anti-PARP antibody.

[2] = test system: MO7E cells; assay: Apoptosis assay: cleaved PARP by western blotting; format: cell-based, human
Description: as §1

[3] = molecular target: c-kit (Homo sapiens, UniProt P10721); settings: MO7E cells, 250 ng/ml rh-SCF 15 min, pre-treatment Compound Eight 2 hours, Compound Six 22 hours
Sequence of c-kit (P10721 26-976): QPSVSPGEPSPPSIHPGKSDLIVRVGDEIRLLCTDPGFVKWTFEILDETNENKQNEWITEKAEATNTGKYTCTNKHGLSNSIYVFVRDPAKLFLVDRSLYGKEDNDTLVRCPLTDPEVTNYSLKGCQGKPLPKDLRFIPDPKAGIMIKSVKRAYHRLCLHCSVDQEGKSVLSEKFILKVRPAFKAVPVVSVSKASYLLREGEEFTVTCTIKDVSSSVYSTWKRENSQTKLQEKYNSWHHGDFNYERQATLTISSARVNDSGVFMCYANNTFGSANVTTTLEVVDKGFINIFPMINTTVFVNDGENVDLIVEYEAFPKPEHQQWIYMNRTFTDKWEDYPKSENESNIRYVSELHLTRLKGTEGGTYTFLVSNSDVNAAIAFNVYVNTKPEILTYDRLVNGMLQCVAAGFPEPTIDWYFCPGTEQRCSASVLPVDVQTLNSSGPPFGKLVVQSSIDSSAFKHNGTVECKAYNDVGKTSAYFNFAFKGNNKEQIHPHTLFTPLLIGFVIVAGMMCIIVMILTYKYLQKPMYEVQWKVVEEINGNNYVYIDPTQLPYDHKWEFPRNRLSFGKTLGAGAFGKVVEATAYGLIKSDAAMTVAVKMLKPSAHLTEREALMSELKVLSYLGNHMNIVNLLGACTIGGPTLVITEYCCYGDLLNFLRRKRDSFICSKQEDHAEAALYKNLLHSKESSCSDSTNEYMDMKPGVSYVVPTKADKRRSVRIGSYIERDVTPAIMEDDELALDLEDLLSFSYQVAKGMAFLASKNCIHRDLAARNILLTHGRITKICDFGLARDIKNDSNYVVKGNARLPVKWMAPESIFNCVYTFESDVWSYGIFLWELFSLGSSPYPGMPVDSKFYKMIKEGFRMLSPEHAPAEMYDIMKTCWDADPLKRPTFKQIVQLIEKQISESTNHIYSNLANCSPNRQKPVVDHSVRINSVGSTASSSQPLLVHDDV
Description: (§2) MO7E cells, a human myeloid leukemia cell line, were maintained in RPMI-1640 medium supplemented with 10% fetal calf serum and 10 ng/ml each IL-3 and GM-CSF.
MO7E cells were serum starved overnight in 0.1% serum. […] Cells were stimulated with 250 ng/ml rh-SCF for 15 minutes. Following stimulation, cells were lysed and immunoprecipitated with an anti-c-kit antibody. Phosphotyrosine and protein levels were determined by western blotting.

[4] = test system: MO7E cells; assay: cells; settings: Homo sapiens, 48 h, read-out: IC50 value for inhibition of proliferation
Description: as §2

| inhibition of c-kit tyrosine phosphorylation ([3]; 0.01 μM) | inhibition of c-kit tyrosine phosphorylation ([3]; 0.1 μM) | inhibition of c-kit tyrosine phosphorylation ([3]; 1 μM) | inhibition of c-kit tyrosine phosphorylation ([3]; 10 μM) | SMILES | effect on number of apoptotic cells (activated caspase-3) ([1]; 5 μM, 24 or 48 hours, +/- SCF stimulation) | effect on number of apoptotic cells (activated caspase-3) ([1]; 25 μM, 24 hours, +/- SCF stimulation) | increase in the number of apoptotic cells (activated caspase-3) ([1]; 25 μM, 48 hours, SCF stimulation, compared to untreated SCF stimulated cells) | effect on number of apoptotic cells (activated caspase-3) ([1]; 25 μM, 48 hours, absence of SCF stimulation) | increase in cleaved PARP ([2]; 5 μM, both timepoints (24 and 48 hours)) | increase in the amount of cleaved PARP ([2]; 25 μM, 48 hours) | change of the cleaved PARP effect with SCF stimulation ([2]; 25 μM, 48 hours, with SCF stimulation) | pIC50 [4] | effect on number of apoptotic cells (activated caspase-3) ([1]; 5 μM, 24 hours, with or without SCF stimulation) |
| --- | --- | --- | --- | --- | --- | --- | --- | --- | --- | --- | --- | --- | --- |
|  |  |  |  | Cc1cc(C)c(/C=C2\C(=O)Nc3ccccc32)[nH]1 [Compound Eight] | measurable but smaller number of apoptotic cells | measurable but smaller number of apoptotic cells | approximately 50% | slight effect | very minimal increase | greatest increase | augmented slightly |  |  |
| no inhibition | no inhibition | partial inhibition | complete inhibition | Cc1[nH]c(/C=C2\C(=O)Nc3ccccc32)c(C)c1CCC(=O)O [Compound Six] |  |  |  |  |  |  |  | 5.15 to 5.30 | no effect |
